# Biological target: T1, human M2 receptor (Homo sapiens, UniProt P08172)
# T1 sequence (P08172 1-466): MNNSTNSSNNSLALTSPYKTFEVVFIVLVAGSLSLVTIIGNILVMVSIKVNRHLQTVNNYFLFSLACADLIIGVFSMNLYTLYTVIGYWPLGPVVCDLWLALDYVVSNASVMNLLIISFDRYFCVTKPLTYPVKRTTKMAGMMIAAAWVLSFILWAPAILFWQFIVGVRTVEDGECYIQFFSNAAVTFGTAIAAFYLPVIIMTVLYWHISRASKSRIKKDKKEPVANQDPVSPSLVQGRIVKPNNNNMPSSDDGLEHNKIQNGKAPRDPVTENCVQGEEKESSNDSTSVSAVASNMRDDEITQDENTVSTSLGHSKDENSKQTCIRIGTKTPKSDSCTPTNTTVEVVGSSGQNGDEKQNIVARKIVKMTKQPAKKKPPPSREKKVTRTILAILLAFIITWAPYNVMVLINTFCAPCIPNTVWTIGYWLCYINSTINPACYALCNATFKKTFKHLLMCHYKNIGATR
# Experiment: Functional M2-GIRK1/4 activation test: allosteric potency (EC50) and efficiency
# Conditions: for EC50: Receptor activity EC50, CHO-DUKX-M2-GIRK cells, acetylcholine at EC20, in some cases mean of two or more determinations; for Emax: read-out: Efficiency, boosting of the acetylcholine effect at EC20 acetylcholine concentration; for Emax / Efficiency: CHO-DUKX-M2-GIRK cells; for Efficiency: boosting of the acetylcholine effect at EC20 acetylcholine concentration
smiles,measurement,value
"CC[C@@H](NC(=O)c1cn(-c2ncc(F)cc2F)c2nc(N3CCOCC3)ccc2c1=O)C(F)(F)F [Example 71, 1-(3,5-Difluoropyridin-2-yl)-7-(morpholin-4-yl)-4-oxo-N-[(2R)-1,1,1-trifluorobutan-2-yl]-1,4-dihydro-1,8-naphthyridine-3-carbonxamide]",EC50,360 nM
same,Emax,97.5%
"CCC(NC(=O)c1cn(-c2ncc(F)cc2F)c2nc(N3C[C@@H](O)CC3=O)ccc2c1=O)C(F)(F)C(F)(F)F (single isomer, unassigned) [Example 94]",EC50,32 nM
same,Efficiency,100.00%
"O=C(NC(C(F)(F)F)C(F)(F)F)c1cn(-c2ncc(F)cc2F)c2nc(N3CCNC3=O)ccc2c1=O [Example 158, 1-(3,5-Difluoropyridin-2-yl)-N-(1,1,1,3,3,3-hexafluoropropan-2-yl)-4-oxo-7-(2-oxoimidazolidin-1-yl)-1,4-dihydro-1,8-naphthyridine-3-carboxamide]",EC50,115 nM
same,Emax,90.5%
"O=C(N[C@@H](C1CC1)C(F)(F)F)c1cn(-c2ncc(F)cc2F)c2nc(N3C[C@H](O)[C@@H](O)C3)ccc2c1=O [Example 61, N-[(1S)-1-Cyclopropyl-2,2,2-trifluoroethyl]-1-(3,5-difluoropyridin-2-yl)-7-[(3S,4S)-3,4-dihydroxypyrrolidin-1-yl]-4-oxo-1,4-dihydro-1,8-naphthyridine-3-carboxamide]",EC50,795 nM
same,Emax,100%
"CC[C@H](NC(=O)c1cn(-c2ncc(F)cc2F)c2nc(N3CC(O)C(C)C3=O)ccc2c1=O)C(F)(F)F (mixture of isomers) [Example 108, 1-(3,5-Difluoropyridin-2-yl)-7-[4-hydroxy-3-methyl-2-oxopyrrolidin-1-yl]-4-oxo-N-[(2S)-1,1,1-trifluorobutan-2-yl]-1,4-dihydro-1,8-naphthyridine-3-carboxamide]",EC50,185 nM
same,Emax,84%
"CCC(COC(F)(F)F)NC(=O)c1cn(-c2ncc(F)cc2F)c2nc(N3C[C@@H](C)NC3=O)ccc2c1=O (stereo partly drawn) [Example 141, 1-(3,5-Difluoropyridin-2-yl)-7-[(4R)-4-methyl-2-oxoimidazolidin-1-yl]-4-oxo-N-[1-(trifluoromethoxy)butan-2-yl]-1,4-dihydro-1,8-naphthyridine-3-carboxamide]",EC50,18 nM
same,Emax,95%
"CC(C)(C)[C@@H](NC(=O)c1cn(-c2ncc(F)cc2F)c2nc(N3C[C@@H](O)[C@H](O)C3)ccc2c1=O)C(F)(F)F [Example 86, 1-(3,5-Difluoropyridin-2-yl)-7-[(3R,4R)-3,4-dihydroxypyrrolidin-1-yl]-4-oxo-N-[(2R)-1,1,1-trifluoro-3,3-dimethylbutan-2-yl]-1,4-dihydro-1,8-naphthyridine-3-carboxamide]",EC50,19 nM
same,Emax,100%
"O=C(N[C@H](C1CC1)C(F)(F)F)c1cn(-c2ncc(F)cc2Cl)c2nc(N3C[C@@H](O)CC3=O)ccc2c1=O [Example 21, 1-(3-Chloro-5-fluoropyridin-2-yl)-N-[(1R)-1-cyclopropyl-2,2,2-trifluoroethyl]-7-[(4S)-4-hydroxy-2-oxopyrrolidin-1-yl]-4-oxo-1,4-dihydro-1,8-naphthyridine-3-carboxamide]",EC50,195 nM
same,Emax,98.5%
"CC(C)(C)[C@H](NC(=O)c1cn(-c2ncc(F)cc2F)c2nc(N3CCN(CCO)C3=O)ccc2c1=O)C(F)(F)F [Example 124, 1-(3,5-Difluoropyridin-2-yl)-7-[3-(2-hydroxyethyl)-2-oxoimidazolidin-1-yl]-4-oxo-N-[(2S)-1,1,1-trifluoro-3,3-dimethylbutan-2-yl]-1,4-dihydro-1,8-naphthyridine-3-carboxamide]",EC50,130 nM
same,Emax,97%
"O=C(N[C@H](C1CC1)C(F)(F)F)c1cn(-c2ncc(F)cc2Cl)c2nc(N3C[C@@H](O)[C@H](O)C3)ccc2c1=O [Example 51, 1-(3-Chloro-5-fluoropyridin-2-yl)-N-[(1R)-1-cyclopropyl-2,2,2-trifluoroethyl]-7-[(3R,4R)-3,4-dihydroxypyrrolidin-1-yl]-4-oxo-1,4-dihydro-1,8-naphthyridine-3-carboxamide]",EC50,527 nM
same,Emax,84.3%
"CC[C@H](NC(=O)c1cn(-c2ncc(F)cc2F)c2nc(N3C(=O)C4(CC4)C(O)C3C)ccc2c1=O)C(F)(F)F (stereo partly drawn) [Example 113, 1-(3,5-Difluoropyridin-2-yl)-7-[7-hydroxy-6-methyl-4-oxo-5-azaspiro[2.4]hept-5-yl]-4-oxo-N-[(2S)-1,1,1-trifluorobutan-2-yl]-1,4-dihydro-1,8-naphthyridine-3-carboxamide]",EC50,145 nM
same,Emax,97%
"O=C(NC(C1CC1)C(F)(F)F)c1cn(-c2ncc(F)cc2F)c2nc(N3CC4CC4(O)C3)ccc2c1=O (stereo not drawn) [Example 36, N-[1-Cyclopropyl-2,2,2-trifluoroethyl]-1-(3,5-difluoropyridin-2-yl)-7-[1-hydroxy-3-azabicyclo[3.1.0]hex-3-yl]-4-oxo-1,4-dihydro-1,8-naphthyridine-3-carboxamide]",EC50,22 nM
same,Emax,100%
"CC1(O)CCN(c2ccc3c(=O)c(C(=O)N[C@H](C4CC4)C(F)(F)F)cn(-c4ncc(F)cc4Cl)c3n2)C1 (mixture of isomers) [Example 53, 1-(3-Chloro-5-fluoropyridin-2-yl)-N-[(1R)-1-cyclopropyl-2,2,2-trifluoroethyl]-7-[3-hydroxy-3-methylpyrrolidin-1-yl]-4-oxo-1,4-dihydro-1,8-naphthyridine-3-carboxamide]",EC50,555 nM
same,Emax,96.5%
"CC[C@@H](NC(=O)c1cn(-c2ncc(F)cc2F)c2nc(N3CC4CC4(O)C3)ccc2c1=O)C(F)(F)F (single isomer, unassigned) [Example 45]",EC50,57 nM
same,Efficiency,96.00%
"O=C(N[C@@H](C1CC1)C(F)(F)F)c1cn(-c2ncc(F)cc2F)c2nc(N3C[C@@H](O)[C@@H](O)C3)ccc2c1=O [Example 62, N-[(1S)-1-Cyclopropyl-2,2,2-trifluoroethyl]-1-(3,5-difluoropyridin-2-yl)-7-[(3R,4S)-3,4-dihydroxypyrrolidin-1-yl]-4-oxo-1,4-dihydro-1,8-naphthyridine-3-carboxamide]",EC50,220 nM
same,Emax,100%
"O=C(Nc1c(Cl)cccc1Cl)c1cn(-c2ncc(F)cc2F)c2nc(N3C[C@@H](O)[C@@H](O)C3)ccc2c1=O [Example 66, N-(2,6-Dichlorophenyl)-1-(3,5-difluoropyridin-2-yl)-7-[(3R,4S)-3,4-dihydroxypyrrolidin-1-yl]-4-oxo-1,4-dihydro-1,8-naphthyridine-3-carboxamide]",EC50,310 nM
same,Emax,92.5%
"CC(NC(=O)c1cn(-c2ncc(F)cc2F)c2nc(N3C[C@@H](O)CC3=O)ccc2c1=O)C(F)(F)C(F)(F)F (single isomer, unassigned) [Example 78]",EC50,44 nM
same,Efficiency,91.50%
"CC[C@H](NC(=O)c1cn(-c2ncc(F)cc2F)c2nc(N3CC[C@H](F)C3)ccc2c1=O)C(F)(F)F [Example 129, 1-(3,5-Difluoropyridin-2-yl)-7-[(3S)-3-fluoropyrrolidin-1-yl]-4-oxo-N-[(2S)-1,1,1-trifluorobutan-2-yl]-1,4-dihydro-1,8-naphthyridine-3-carboxamide]",EC50,21 nM
same,Emax,96.5%
"CC(NC(=O)c1cn(-c2ncc(F)cc2F)c2nc(N3CCNC3=O)ccc2c1=O)C(F)(F)C(F)(F)F (racemic) [Example 161, 1-(3,5-Difluoropyridin-2-yl)-4-oxo-7-(2-oxoimidazolidin-1-yl)-N-[3,3,4,4,4-pentafluorobutan-2-yl]-1,4-dihydro-1,8-naphthyridine-3-carboxamide]",EC50,70 nM
same,Emax,100%
O=C(NC(C(F)(F)F)C(F)(F)F)c1cn(-c2ncc(F)cc2F)c2nc(N3CCC(O)(CO)CC3)ccc2c1=O [Example 179],EC50,95 nM
same,Emax,100%
"CCC(NC(=O)c1cn(-c2ncc(F)cc2F)c2nc(N3C[C@@H](O)CC3=O)ccc2c1=O)C(F)(F)C(F)(F)F (mixture of isomers) [Example 92, 1-(3,5-Difluoropyridin-2-yl)-7-[(4S)-4-hydroxy-2-oxopyrrolidin-1-yl]-4-oxo-N-[1,1,1,2,2-pentafluoropentan-3-yl]-1,4-dihydro-1,8-naphthyridine-3-carboxamide]",EC50,17 nM
same,Emax,100%
"O=C(NC(C1CC1)C(F)(F)F)c1cn(-c2ncc(F)cc2F)c2nc(N3C[C@@H](O)[C@H](O)C3)ccc2c1=O (stereo partly drawn) [Example 40, N-[1-Cyclopropyl-2,2,2-trifluoroethyl]-1-(3,5-difluoropyridin-2-yl)-7-[(3R,4R)-3,4-dihydroxypyrrolidin-1-y1]-4-oxo-1,4-dihydro-1,8-naphthyridine-3-carboxamide]",EC50,160 nM
same,Emax,100%
"O=C(NC(C(F)(F)F)C(F)(F)F)c1cn(-c2ncc(F)cc2F)c2nc(N3CC4CC4(O)C3)ccc2c1=O (single isomer, unassigned) [Example 58, 1-(3,5-Difluoropyridin-2-yl)-N-(1,1,1,3,3,3-hexafluoropropan-2-yl)-7-[1-hydroxy-3-azabicyclo[3.1.0]hex-3-yl]-4-oxo-1,4-dihydro-1,8-naphthyridine-3-carboxamide]",EC50,11 nM
same,Emax,96%
"O=C(NC(c1ccc(F)cc1)C(F)(F)F)c1cn(-c2ncc(F)cc2F)c2nc(N3C[C@@H](O)CC3=O)ccc2c1=O (single isomer, unassigned) [Example 12]",EC50,55 nM
same,Emax,100%

# Reference: US10519154B2, “7-substituted 1-pyridyl-naphthyridine-3-carboxylic acid amides and use thereof” (Bayer Pharma Aktiengesellschaft, priority 2016, dated 2019)
